In patent publication US12471596B2 (priority 2019, dated 2025):

Experiments:
Phytophthora infestans [1] = assay: microbe, parasite or virus in culture; type: cell-based; details: in Secale cereale, 168 h, read-out: control compared to the untreated check
Phytophthora infestans [2] = assay: whole plant or invertebrate; type: in vivo, Phytophthora infestans on tomato plants; details: in Solanum lycopersicum, 24 h, read-out: control compared to the untreated check
Plasmopara viticola = assay: Example B: Plasmopara viticola test in grape (greenhouse, preventive); type: in vivo; details: 24 h, grape seedlings sprayed one day before inoculation, disease severity rating, read-out: control compared to the untreated check
Procedure: Example B: Plasmopara viticola Test in Grape
The compound were dissolved in 2% DMSO/Acetone & then mixed with water containing emulsifier to a calibrated spray volume of 50 mL. The spray solutions were poured into spray bottles for further applications.
To test the preventive activity of compounds, 5 week old healthy grape seedlings, cv. Thompson seedless, raised in the greenhouse, were sprayed with the active compound preparation at the stated application rates inside spray cabinets using hallow cone nozzles. One day after treatment, the plants were inoculated with an inoculum suspension (sterile water) containing 6×10^4 Plasmopara viticola inoculum. The inoculated plants were then kept in a greenhouse chamber at 18-21° C. temperature and 95-100% relative humidity for disease expression.
A visual assessment of the performance of the compound was carried out by rating the disease severity (0-100% scale) on treated plants 3, 7 and 10 days after application. Efficacy (% control) of the compound was calculated by comparing the disease rating in the treatment with the one of the untreated control. The compounds were also assessed for their plant compatibility by recording symptoms like necrosis, chlorosis & stunting

N#Cc1ccnc(OCC(=O)N2CCC(c3nc(C4=NOC(c5c(Cl)cccc5Cl)C4)cs3)CC2)n1 (stereo not drawn) [Compound 112, 2-(2-(4-(4-(5-(2,6-dichlorophenyl)-4,5-dihydroisoxazol-3-yl)thiazol-2-yl)piperidin-1-yl)-2-oxoethoxy)pyrimidine-4-carbonitrile]
≥ 70%: inhibition of growth at 30 ppm (Phytophthora infestans [1]) | pest or weed control at 50 ppm (Phytophthora infestans [2]) | pest or weed control at 50 ppm (Plasmopara viticola)

N#Cc1ccnc(OCC(=O)N2CCC(c3nc(C4=NOC(c5c(F)cccc5F)C4)cs3)CC2)n1 (stereo not drawn) [Compound 116, 2-(2-(4-(4-(5-(2,6-difluorophenyl)-4,5-dihydroisoxazol-3-yl)thiazol-2-yl)piperidin-1-yl)-2-oxoethoxy)pyrimidine-4-carbonitrile]
≥ 70%: inhibition of growth at 30 ppm (Phytophthora infestans [1]) | pest or weed control at 50 ppm (Phytophthora infestans [2]) | pest or weed control at 50 ppm (Plasmopara viticola)

O=C(COc1nccnc1Cl)N1CCC(c2nc(C3=NOC(c4c(F)cccc4Br)C3)cs2)CC1 (stereo not drawn) [Compound 121, 1-(4-(4-(5-(2-bromo-6-fluorophenyl)-4,5-dihydroisoxazol-3-yl)thiazol-2-yl)piperidin-1-yl)-2-((3-chloropyrazin-2-yl)oxy)ethan-1-one]
≥ 70%: inhibition of growth at 30 ppm (Phytophthora infestans [1]) | pest or weed control at 50 ppm (Phytophthora infestans [2]) | pest or weed control at 50 ppm (Plasmopara viticola)

O=C(COc1nccnc1C(F)(F)F)N1CCC(c2nc(C3=NOC(c4c(F)cccc4Cl)C3)cs2)CC1 (stereo not drawn) [Compound 1, 1-(4-(4-(5-(2-chloro-6-fluorophenyl)-4,5-dihydroisoxazol-3-yl)thiazol-2-yl)piperidin-1-yl)-2-((3-(trifluoromethyl)pyrazin-2-yl)oxy)ethan-1-one]
≥ 70%: inhibition of growth at 30 ppm (Phytophthora infestans [1]) | pest or weed control at 50 ppm (Phytophthora infestans [2]) | pest or weed control at 50 ppm (Plasmopara viticola)

N#Cc1ccnc(OCC(=O)N2CCC(c3nc(C4=NOC(c5c(Cl)cccc5C(F)(F)F)C4)cs3)CC2)n1 (stereo not drawn) [Compound 114, 2-(2-(4-(4-(5-(2-chloro-6-(trifluoromethyl)phenyl)-4,5-dihydroisoxazol-3-yl)thiazol-2-yl)piperidin-1-yl)-2-oxoethoxy)pyrimidine-4-carbonitrile]
≥ 70%: inhibition of growth at 30 ppm (Phytophthora infestans [1]) | pest or weed control at 50 ppm (Phytophthora infestans [2]) | pest or weed control at 50 ppm (Plasmopara viticola)

O=C(COc1nccnc1C(F)(F)F)N1CCC(c2nc(C3=NOC(c4c(Cl)cc(Cl)cc4Cl)C3)cs2)CC1 (stereo not drawn) [Compound 2, 1-(4-(4-(5-(2,4,6-trichlorophenyl)-4,5-dihydroisoxazol-3-yl)thiazol-2-yl)piperidin-1-yl)-2-((3-(trifluoromethyl)pyrazin-2-yl)oxy)ethan-1-one]
≥ 70%: inhibition of growth at 30 ppm (Phytophthora infestans [1]) | pest or weed control at 50 ppm (Phytophthora infestans [2]) | pest or weed control at 50 ppm (Plasmopara viticola)

COc1cncc(OCC(=O)N2CCC(c3nc(C4=NOC(c5c(F)cccc5Br)C4)cs3)CC2)n1 (stereo not drawn) [Compound 120, 1-(4-(4-(5-(2-bromo-6-fluorophenyl)-4,5-dihydroisoxazol-3-yl)thiazol-2-yl)piperidin-1-yl)-2-((6-methoxypyrazin-2-yl)oxy)ethan-1-one]
≥ 70%: inhibition of growth at 30 ppm (Phytophthora infestans [1]) | pest or weed control at 50 ppm (Phytophthora infestans [2]) | pest or weed control at 50 ppm (Plasmopara viticola)
